Reference: ChEMBL document CHEMBL5465560, “Selectivity Literature for EUbOPEN Chemogenomic Library” (2024)

Experiments:
[1] = molecular target: T1, Serine/threonine-protein kinase LATS2 (Homo sapiens) (UniProt Q9NRM7); assay: Selectivity interaction (Kinase panel (KiNativ target engagement assay in Jurkat cells)) EUB0001635a LATS2; format: cell-based; settings: Selectivity number of off-targets 0.0, Selectivity number of targets 233.0, Source Knowledge https://www.sciencedirect.com/science/article/pii/S2451945619300674?via%3Dihub, at 1 µM
T1 sequence (whole entry): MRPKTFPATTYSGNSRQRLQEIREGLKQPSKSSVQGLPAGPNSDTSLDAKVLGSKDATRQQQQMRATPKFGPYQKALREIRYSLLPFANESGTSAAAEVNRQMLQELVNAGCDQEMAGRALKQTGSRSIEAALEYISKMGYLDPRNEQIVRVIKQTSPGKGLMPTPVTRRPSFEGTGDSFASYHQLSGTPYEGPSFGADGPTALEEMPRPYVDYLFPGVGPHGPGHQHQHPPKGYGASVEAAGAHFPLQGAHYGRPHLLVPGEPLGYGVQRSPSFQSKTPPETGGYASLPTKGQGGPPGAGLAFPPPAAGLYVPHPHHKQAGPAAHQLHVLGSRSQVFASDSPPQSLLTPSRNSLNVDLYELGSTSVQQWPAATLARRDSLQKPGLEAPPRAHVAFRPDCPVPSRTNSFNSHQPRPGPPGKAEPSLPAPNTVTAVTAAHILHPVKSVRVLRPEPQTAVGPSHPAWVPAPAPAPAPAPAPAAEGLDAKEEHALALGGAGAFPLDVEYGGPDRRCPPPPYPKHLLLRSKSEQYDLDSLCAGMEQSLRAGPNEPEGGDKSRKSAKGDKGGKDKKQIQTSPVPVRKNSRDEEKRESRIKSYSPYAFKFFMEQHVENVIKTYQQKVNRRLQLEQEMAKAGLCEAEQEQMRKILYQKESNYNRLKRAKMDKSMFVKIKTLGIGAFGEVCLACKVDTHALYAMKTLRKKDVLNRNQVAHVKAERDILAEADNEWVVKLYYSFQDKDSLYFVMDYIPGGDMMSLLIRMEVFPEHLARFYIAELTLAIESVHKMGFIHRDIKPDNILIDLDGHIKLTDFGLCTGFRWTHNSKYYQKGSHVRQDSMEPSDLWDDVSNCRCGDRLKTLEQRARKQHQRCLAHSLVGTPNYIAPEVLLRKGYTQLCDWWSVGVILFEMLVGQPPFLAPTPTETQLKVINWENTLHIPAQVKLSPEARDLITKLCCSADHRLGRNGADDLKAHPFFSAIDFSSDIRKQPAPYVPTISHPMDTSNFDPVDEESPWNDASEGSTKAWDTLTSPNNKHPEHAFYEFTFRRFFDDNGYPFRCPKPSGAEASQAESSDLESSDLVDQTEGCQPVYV

[2] = molecular target: 5'-AMP-activated protein kinase catalytic subunit alpha-2 (Homo sapiens) (UniProt P54646); settings: at 10 µM
Chain of 5'-AMP-activated protein kinase catalytic subunit alpha-2 (Homo sapiens) (P54646 whole entry, looked up): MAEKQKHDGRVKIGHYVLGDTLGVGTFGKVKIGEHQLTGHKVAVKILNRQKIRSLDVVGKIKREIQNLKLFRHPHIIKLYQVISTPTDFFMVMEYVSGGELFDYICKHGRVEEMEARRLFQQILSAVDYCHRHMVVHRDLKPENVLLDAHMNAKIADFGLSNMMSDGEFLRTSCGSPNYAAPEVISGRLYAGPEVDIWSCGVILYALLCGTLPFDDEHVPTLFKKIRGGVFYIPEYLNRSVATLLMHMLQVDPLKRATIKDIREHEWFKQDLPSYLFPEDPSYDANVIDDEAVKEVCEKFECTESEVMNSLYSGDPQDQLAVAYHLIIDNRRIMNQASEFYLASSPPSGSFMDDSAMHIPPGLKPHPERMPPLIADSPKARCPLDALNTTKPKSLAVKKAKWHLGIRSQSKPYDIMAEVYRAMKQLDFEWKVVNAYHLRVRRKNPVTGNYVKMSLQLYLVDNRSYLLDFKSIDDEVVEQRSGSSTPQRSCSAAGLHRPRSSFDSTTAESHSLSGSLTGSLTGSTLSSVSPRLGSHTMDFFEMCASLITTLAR

[3] = molecular target: T2, Inhibitor of nuclear factor kappa-B kinase subunit beta (Homo sapiens) (UniProt O14920); assay: Selectivity interaction (ActivX KiNativ screen (kinase selectivity in THP-1 cell lysates)) EUB0000639a IKBKB; format: subcellular; settings: lysate, at 5 µM
T2 sequence (whole entry): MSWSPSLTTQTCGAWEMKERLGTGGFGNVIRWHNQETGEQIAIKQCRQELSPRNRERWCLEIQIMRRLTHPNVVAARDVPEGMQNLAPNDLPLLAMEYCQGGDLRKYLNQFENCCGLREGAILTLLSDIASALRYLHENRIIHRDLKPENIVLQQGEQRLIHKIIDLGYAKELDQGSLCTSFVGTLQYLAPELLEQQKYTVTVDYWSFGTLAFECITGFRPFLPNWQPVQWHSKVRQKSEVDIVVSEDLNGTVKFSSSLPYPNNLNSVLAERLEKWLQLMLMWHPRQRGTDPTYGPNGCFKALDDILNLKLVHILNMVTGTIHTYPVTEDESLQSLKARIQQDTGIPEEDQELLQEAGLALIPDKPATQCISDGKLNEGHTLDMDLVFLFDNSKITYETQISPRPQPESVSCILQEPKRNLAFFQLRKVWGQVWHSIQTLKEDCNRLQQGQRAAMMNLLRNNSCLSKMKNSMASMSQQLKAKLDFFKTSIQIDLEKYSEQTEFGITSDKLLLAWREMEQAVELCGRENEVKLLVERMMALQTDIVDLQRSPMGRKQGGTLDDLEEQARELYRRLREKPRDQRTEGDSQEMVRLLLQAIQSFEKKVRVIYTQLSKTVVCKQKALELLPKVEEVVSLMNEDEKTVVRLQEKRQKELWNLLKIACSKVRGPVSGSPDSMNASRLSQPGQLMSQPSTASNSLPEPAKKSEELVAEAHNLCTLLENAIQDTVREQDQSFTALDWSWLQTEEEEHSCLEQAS

[4] = molecular target: Ribosomal protein S6 kinase alpha-3 (Homo sapiens, UniProt P51812); assay: Selectivity interaction (ActivX KiNativ screen (kinase selectivity in THP-1 cell lysates)) EUB0000639a RPS6KA3; format: subcellular; settings: lysate, at 0.2 µM
Chain of Ribosomal protein S6 kinase alpha-3 (P51812 whole entry): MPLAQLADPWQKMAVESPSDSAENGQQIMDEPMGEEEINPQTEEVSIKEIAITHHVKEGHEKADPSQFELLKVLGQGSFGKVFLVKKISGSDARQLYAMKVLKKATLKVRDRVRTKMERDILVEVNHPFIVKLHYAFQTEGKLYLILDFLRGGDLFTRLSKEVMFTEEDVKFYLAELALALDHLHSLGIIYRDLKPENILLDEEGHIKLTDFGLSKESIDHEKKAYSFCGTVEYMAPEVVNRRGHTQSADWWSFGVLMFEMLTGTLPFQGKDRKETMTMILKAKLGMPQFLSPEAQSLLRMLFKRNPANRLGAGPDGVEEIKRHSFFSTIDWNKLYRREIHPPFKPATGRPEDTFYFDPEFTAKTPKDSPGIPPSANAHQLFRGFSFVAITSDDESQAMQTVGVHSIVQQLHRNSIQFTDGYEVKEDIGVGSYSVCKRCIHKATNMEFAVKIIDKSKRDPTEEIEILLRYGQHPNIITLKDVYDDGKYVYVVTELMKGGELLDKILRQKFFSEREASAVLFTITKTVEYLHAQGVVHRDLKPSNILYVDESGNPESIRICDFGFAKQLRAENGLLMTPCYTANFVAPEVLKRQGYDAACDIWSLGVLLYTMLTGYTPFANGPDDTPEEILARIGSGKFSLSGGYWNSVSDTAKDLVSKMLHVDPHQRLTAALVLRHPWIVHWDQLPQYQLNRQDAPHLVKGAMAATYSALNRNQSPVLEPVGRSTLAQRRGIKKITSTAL

[5] = molecular target: T3, Mitogen-activated protein kinase kinase kinase kinase 3 (Homo sapiens) (UniProt Q8IVH8); assay: Selectivity interaction (KinomeScan (DiscoverX)) EUB0000655a MAP4K3; settings: at 10 µM
T3 sequence (whole entry): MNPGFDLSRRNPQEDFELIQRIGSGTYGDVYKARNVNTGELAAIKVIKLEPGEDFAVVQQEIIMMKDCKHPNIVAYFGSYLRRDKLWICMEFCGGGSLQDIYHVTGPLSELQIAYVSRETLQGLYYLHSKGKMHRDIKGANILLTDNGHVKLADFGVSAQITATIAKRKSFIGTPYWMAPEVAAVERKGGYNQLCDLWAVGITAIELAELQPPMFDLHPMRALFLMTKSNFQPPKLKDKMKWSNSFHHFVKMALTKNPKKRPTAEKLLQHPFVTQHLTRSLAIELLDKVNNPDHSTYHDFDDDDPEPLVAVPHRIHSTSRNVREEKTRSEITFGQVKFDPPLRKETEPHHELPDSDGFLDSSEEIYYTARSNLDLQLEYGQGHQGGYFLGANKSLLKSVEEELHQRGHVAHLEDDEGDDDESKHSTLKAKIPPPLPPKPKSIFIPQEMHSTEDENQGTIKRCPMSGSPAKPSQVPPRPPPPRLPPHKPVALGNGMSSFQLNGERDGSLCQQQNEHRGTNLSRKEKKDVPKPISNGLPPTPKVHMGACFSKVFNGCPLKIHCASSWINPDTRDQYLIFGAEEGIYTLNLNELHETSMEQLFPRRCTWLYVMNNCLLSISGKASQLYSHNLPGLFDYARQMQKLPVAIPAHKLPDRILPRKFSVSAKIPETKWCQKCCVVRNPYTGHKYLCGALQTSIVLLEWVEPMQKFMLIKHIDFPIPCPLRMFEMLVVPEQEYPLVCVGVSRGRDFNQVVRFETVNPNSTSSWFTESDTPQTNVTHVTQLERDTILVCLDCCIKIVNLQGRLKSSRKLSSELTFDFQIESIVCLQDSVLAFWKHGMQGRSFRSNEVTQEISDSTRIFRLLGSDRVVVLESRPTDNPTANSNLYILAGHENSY

C=CC(=O)Nc1ccc(C(=O)Nc2[nH]nc3c2CN(C(=O)N[C@H](CN(C)C)c2ccccc2)C3(C)C)cc1
% of engagement [1]: -12.8%

CCN(CC)CCCCNc1ncc2cc(-c3cc(OC)cc(OC)c3)c(NC(=O)NC(C)(C)C)nc2n1
% of control [2]: 100%

CC[C@@H]1[C@H](F)C(=O)N[C@@H]1COc1nccc2cc(C(N)=O)c(OC)cc12 [ZIMLOVISERTIB]
% of inhibition [3]: -9.2%
% of inhibition [4]: 0%

CN(C)CCOc1ccc(-c2nc(-c3ccncc3)c(-c3ccc4c(c3)CC/C4=N\O)[nH]2)cc1
% of control [5]: 98%
